Assay results from US20240390455A1, “METHODS AND COMPOSITIONS FOR TREATING CANCERS AND OTHER PROLIFERATIVE DISORDERS” (ARIZONA BOARD OF REGENTS ON BEHALF OF THE UNIVERSITY OF …, priority 2022, published 2024).

Experiments:
Akt = Akt phosphorylation in naive HPASMC treated with media from apoptotic cells (Western blot); format: cell-based, human; settings: apoptotic conditioned media, 24 h, L-690,330 at 500 μM, FIG. 9C
Experimental: Western blot and immunoprecipitation: For an analysis of the total lung proteins, lung tissues were lysed. According to the manufacturer's protocol, the membrane proteins were isolated using Mem-PER Plus Membrane Protein Extraction Kit (ThermoFisher Scientific, Rockford, IL). Briefly, 20-40 mg of lung tissue was quickly washed in Cell WashSolution to remove any blood components, transferred to permeabilization buffer mixed with protease and phosphatase inhibitor cocktails, homogenized using Fisher Homogenizer 850 for 1 minute, and shaken in UltraCruz Shaker at 0° C. for 10 minutes. The homogenate was centrifuged at 16,000 g for 15 minutes to pellet permeabilized cells. The supernatant containing cytosolic proteins was carefully transferred to a separate tube. […] The reactive bands were visualized using a chemiluminescent protocol, recorded with the ChemiDoc MP Imaging System (Bio-RadLaboratories, Hercules, CA), and analyzed using Image Laboratory software. […]
Cell culture: Human pulmonary artery endothelial cells (HPAEC; cat. no. 3100, lot no. 3904) and human pulmonary artery smooth muscle cells (HPASMC; cat. no. 3110, lot no. 0294) were purchased from ScienCell (Carlsbad, CA), one donor for each cell type. […] The level of apoptosis was quantified using Apoptosis and Necrosis Quantification Kit (Biotum, Fremont, CA) according to the manufacturer's protocol. […]

HeLa cells = experiment: Proliferation of HeLa cells (human cancer cells); format: cell-based; settings: FIG. 11G
[1] = test system: PAEC isolated from Control subjects; experiment: Growth of PAEC isolated from Control subjects (healthy cells); format: cell-based, human; settings: 3.3 mg/ml, FIG. 11F
[2] = test system: PAEC isolated from IPAH patients; experiment: Proliferation of PAEC isolated from IPAH patients; format: cell-based, human; settings: 3.3 mg/ml, FIG. 11E
SU/Hx rats = experiment: SU/Hx rat model of pulmonary arterial hypertension: RV pressure and RV hypertrophy; format: in vivo; settings: 5 μg/kg i.p. daily for 1 wk
Experimental: (§1) Rat models of pulmonary hypertension: Thirty-two Sprague-Dawley female rats (200-250 g) were purchased from Charles River (Wilmington, MA). Animals were kept in a 12-h:12-h light-dark cycle and received standard rodent food and water ad libitum. All experimental procedures were approved by the University of Arizona's Institutional Animal Care and Use Committee. To induce PAH, rats received either the vehicle or a single dose of the VEGF receptor 2 antagonist SU5416, 50 mg/kg sc, as previously described. On the day of injection, the PAH rats were placed in a hypoxic chamber (BioSpherix, Redfield, NJ), and the oxygen was maintained at the level of 10±0.5%. The O2 and CO2 concentrations were continuously monitored (PROOX 110 BioSpherix oxygen controller and LB-2 CO2 analyzer; Sensormedics).
The animals were analyzed after 1 or 2 weeks of exposure to hypoxia or after 5 weeks (i.e., 3 weeks of hypoxia and 2 weeks of normoxia). The control rats were kept under normoxic conditions for the duration of the study (5 weeks). At the end of each study period, animals were anesthetized ([…], 100 mg/kg ip) and instrumented for measurement of right ventricle (RV) hemodynamics. Briefly, a PE-240 polyethylene tube was inserted into the trachea to facilitate breathing. […]

RAGE/IMPA1 = biological target: T1, RAGE/IMPA1 (Rattus norvegicus, UniProt P97697); experiment: RAGE/IMPA1 co-immunoprecipitation in lungs of SU/Hx rats after peptide injection; format: in vivo; settings: 5 μg/kg i.p. daily for 1 wk, FIG. 11B
T1 construct: from tissue; host or cells: lung of Sprague-Dawley rats (SU5416/hypoxia PAH model)
T1 sequence (P97697 1-277): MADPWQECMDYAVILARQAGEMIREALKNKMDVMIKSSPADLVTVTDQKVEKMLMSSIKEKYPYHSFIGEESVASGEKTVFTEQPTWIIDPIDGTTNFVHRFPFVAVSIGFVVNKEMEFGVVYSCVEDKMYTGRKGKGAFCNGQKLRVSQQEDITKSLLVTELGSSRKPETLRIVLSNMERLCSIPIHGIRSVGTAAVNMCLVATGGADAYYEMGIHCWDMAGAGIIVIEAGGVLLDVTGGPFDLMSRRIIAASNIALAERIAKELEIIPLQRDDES
Experimental: as §1
For immunoprecipitation (IP), RAGE antibodies conjugated to agarose beads were used according to the manufacturer's (Santa Cruz Biotechnology) protocol. Lung tissue lysate (300 μg of total protein) was rotated at room temperature with 20 μl of bead solution for 2 hours. Beads were collected by brief centrifugation (30 seconds at 1,000 g), washed four times with lysis buffer and PBS, resuspended with 30 μl of 2× Laemmli sample buffer, and boiled for 5 minutes at 95° C. The supernatant collected by centrifugation was used for Western Blot analysis as described.

[3] = biological target: T2, receptor for advanced glycation endproducts (RAGE), rat, endogenous in lung tissue (rat, UniProt Q63495 23-402); experiment: RAGE co-IP from PAH rat lung, mass spectrometry, immunoblot time course and PLA
T2 construct: Endogenous rat protein, pulled down from lung lysate with RAGE antibody on agarose beads or detected in situ by PLA; No construct limits apply; also called full-size RAGE
Description: FIGS. 4A, 4B, and 4C show a receptor for advanced glycation endproducts (RAGE) interacting with inositol monophosphatase 1 (IMPA1) in pulmonary arterial hypertension (PAH). Mass spectrometry analysis of proteins co-immunoprecipitated (co-IP) with RAGE from lungs identified IMPA1 as a novel RAGE interacting partner. The RAGE-IMPA1 complex was discovered in both samples from PAH animals (week 5) but not in control (peptide probability […]; 4 peptides with P>89%). […] There was no interaction between RAGE and IMPA1 in controls from week 1 RAGE/IMPA1 were efficiently co-IP (n=4 for all groups). Results are expressed as box and whisker plots (boxes: 25th to 75th percentile of the data; whiskers: minimum to maximum; the line represents the median value). *P<0.05 vs. control. Statistical analysis was performed by Newman-Keuls multiple-comparisons test. […] Images are representative of 6 pulmonary arteries/at n=4 rats/group. Gray images were taken using light microscopy (×20) to visualize the tissue structure. The square represents the area of magnification (×100). The white marker corresponds to 25 μm. […] The dotted line is traced following the external lamina of the vessel. The arrowheads point to the endothelial cells with no PLA signal; white arrows point to the cells in the pulmonary artery media and adventitia cells with a bright PLA signal. IB, immunoblot. […]

T2 sequence (Q63495 23-402 limits assumed): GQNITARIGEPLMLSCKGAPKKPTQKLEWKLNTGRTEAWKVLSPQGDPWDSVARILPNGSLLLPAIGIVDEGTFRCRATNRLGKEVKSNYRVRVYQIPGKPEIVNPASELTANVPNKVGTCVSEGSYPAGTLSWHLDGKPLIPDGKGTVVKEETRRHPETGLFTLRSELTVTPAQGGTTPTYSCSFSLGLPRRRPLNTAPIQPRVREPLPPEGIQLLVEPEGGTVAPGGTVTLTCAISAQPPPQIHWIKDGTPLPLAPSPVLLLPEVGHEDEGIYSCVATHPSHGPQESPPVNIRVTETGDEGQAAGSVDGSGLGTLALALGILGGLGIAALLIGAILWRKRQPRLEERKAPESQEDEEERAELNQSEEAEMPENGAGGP

CC(Oc1ccc(O)cc1)(P(=O)(O)O)P(=O)(O)O [L-690,330]
Akt phosphorylation (Akt): significantly attenuated

anti-RAGE/IMPA1 peptide: peptide designed based on the sequence of cytosolic tails of RAGE predicted to interact with IMPA1; probably SEQ ID NO: 1 (ILWQRRQRRG)
proliferative phenotype of HeLa cells (HeLa cells): reverses the proliferative phenotype | growth of PAEC isolated from Control subjects [1]: does not affect the growth | proliferative phenotype of PAEC isolated from IPAH patients [2]: reverses the highly proliferative phenotype

ILWQRRQRRG [SEQ ID NO: 1]
RVSP (right ventricle systolic pressure) (SU/Hx rats; FIG. 11C): reduces RVSP | RV hypertrophy (SU/Hx rats; FIG. 11D): reduces | RAGE/IMPA1 co-IP (RAGE/IMPA1): inhibits RAGE/IMPA1 co-IP

B1: inositol monophosphatase 1 (IMPA1), rat, endogenous in lung tissue (enzyme, UniProt P97697 1-277, looked up)
chain: T1 sequence (P97697 1-277)
notes: Endogenous rat protein co-immunoprecipitated with RAGE
binding result [3]: binds
